The text below walks through data of patent publication US7592140B2, “2′, 5′-oligoadenylate phosphodiesterase” (priority 2002, dated 2009).

Series [1] can be described thus: Solubility (physicochemical properties).
The target of series [2] is T1, recombinant human 2′-PDE (Homo sapiens, UniProt Q6L8Q7).
T1 sequence (Q6L8Q7 43-609): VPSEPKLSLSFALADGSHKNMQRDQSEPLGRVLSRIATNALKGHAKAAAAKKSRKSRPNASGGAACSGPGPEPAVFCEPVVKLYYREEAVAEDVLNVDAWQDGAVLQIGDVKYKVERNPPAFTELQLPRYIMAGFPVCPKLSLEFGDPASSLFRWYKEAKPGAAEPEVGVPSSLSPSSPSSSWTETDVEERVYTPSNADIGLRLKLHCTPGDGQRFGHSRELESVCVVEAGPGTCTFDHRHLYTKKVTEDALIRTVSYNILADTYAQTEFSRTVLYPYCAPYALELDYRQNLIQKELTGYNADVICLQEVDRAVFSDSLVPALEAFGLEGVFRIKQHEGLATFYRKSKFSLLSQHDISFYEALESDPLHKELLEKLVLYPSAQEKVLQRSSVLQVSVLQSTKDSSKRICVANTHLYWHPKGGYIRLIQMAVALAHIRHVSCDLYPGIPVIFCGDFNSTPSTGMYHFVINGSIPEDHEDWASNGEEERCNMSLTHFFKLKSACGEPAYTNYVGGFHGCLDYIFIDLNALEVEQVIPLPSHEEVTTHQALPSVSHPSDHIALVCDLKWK
Put plainly: Inhibition of recombinant human 2′-PDE activity (HPLC measurement of substrate reduction). In kind it is biochemical. Further details: His6 (histidine hexamer) (C); made in house; nickel-chelate partial purification. The settings on record: substrate 0.75 mM adenylyl(2′-5′)adenosine, 37° C. for 60 min; read-out: 50% inhibition concentration (converted). The procedure:
To 10 μl of the partially purified human 2′-PDE enzyme solution obtained in part 1) of Production Example 1, were added 80 μl of Buffer 7 containing 0.75 mM adenylyl(2′-5′)adenosine as the substrate and 10 μl of a solution of the A-74528 compound dissolved in dimethyl sulphoxide. Then the mixture was incubated at 37° C. for 60 min. and the enzyme was inactivated by addition of 200 μl of methanol. Ten μl of the sample obtained, after insoluble matter was removed using a 0.45 μm filter, was subjected to a reversed phase column (Inertsil ODS-2, 5 μm: diameter 4.6 mm×150 mm: manufactured by GL Science), equilibrated beforehand with Buffer 17 [50 mM ammonium acetate (pH 5.0), 5% (V/V) acetonitrile]. Liquid chromatography was performed at a flow rate of 1 ml/min. at 40° C., and the eluate was monitored at a wavelength of 260 nm. The elution was conducted as an isocratic elution. Using a standard material for the substrate, a conversion formula for obtaining the substrate amount based on the peak area was prepared. Based on the conversion formula, the reduction in the amount of the substrate was calculated from the substrate peak area when the diluted enzyme solution was added, which was regarded as the amount of the enzyme reaction product.

In the next series the test system is Vaccinia virus WR strain. In kind it is cell-based.
Series [3] addresses T1, recombinant human 2′-PDE. Put plainly: Substrate specificity of recombinant human 2′-PDE (HPLC). Type of series: biochemical. The following applies: relative to adenylyl(2′-5′)adenosine defined as one; 150 μM substrate, 37° C. for 60 min. Further details: His6 (histidine hexamer) (C); made in house; host or cells: COS-1 cells (monkey kidney), transient transfection with pEF6/KUBO#002/11-1; nickel-chelate partial purification.

The test system of series [4] is 2′-PDE purified by Johnston et al. The settings on record: value obtained by Johnston et al.; activity with A2′pA defined as 1; cited from earlier work.
Series [5] concerns 2′-PDE stable expression strains #6 and #10. Put plainly: Cell viability of 2′-PDE stable expression strains of PC-3 (Alamar Blue). Type of series: cell-based, human. The settings on record: cultured for 3 days. (In general: Resazurin is reduced to fluorescent resorufin, in cell work by metabolically active cells.)
The next series deals with PC-3 cells. Put plainly: Cell viability of PC-3 cells (Alamar Blue). Type of series: cell-based, human. The settings on record: host PC-3 cells, cultured for 3 days.

Consider `CC1c2c(O)cc(O)c3c2C2C(CC(O)=C4C(=O)c5c(O)cc(O)cc5C(C3=O)C42Cc2cc(O)cc(=O)o2)C1O` (stereo not shown) [A-74528], for which the solubility entry in series [1] was “soluble in methanol and dimethyl sulphoxide”. The IC50 at recombinant human 2′-PDE [2] was 60.7 µM. In the series on Vaccinia virus WR strain, the “effect on viral replication-suppression activity of interferon-α” value is given as “enhanced the viral replication-suppression activity of interferon-α” and the viral replication-suppression activity entry is listed as “exhibited a viral replication-suppression activity in a concentration-dependent manner”.
For the molecule `Nc1ncnc2c1ncn2[C@@H]1O[C@H](COP(=O)(O)O[C@H]2[C@@H](O)[C@H](n3cnc4c(N)ncnc43)O[C@@H]2COP(=O)(O)O[C@H]2[C@@H](O)[C@H](n3cnc4c(N)ncnc43)O[C@@H]2CO)[C@@H](O)[C@H]1O` [adenylyl(3′-5′)adenylyl(3′-5′)adenosine], the results for the relative cleavage efficiency (on recombinant human 2′-PDE [3]; in series [4]) were 1.1 and 163, respectively.
As to interferon-α, the “cell proliferation suppression activity compared with host PC-3 cells” value in series [5] is recorded as “attenuated”. In addition, the “suppression of cell viability” value with PC-3 cells is “suppressed the viability of PC-3 cells in a concentration-dependent manner”.

B1: interferon-γ (protein, UniProt P01579 24-161, looked up)
Interferon gamma: QDPYVKEAENLKKYFNAGHSDVADNGTLFLGILKNWKEESDRKIMQSQIVSFYFKLFKNFKDDQSIQKSVETIKEDMNVKFFNSNKKKRDDFEKLTNYSVTDLNVQRKAIHELIQVMAELSPAAKTGKRKRSQMLFRG
With B1, the “cell proliferation suppression activity compared with host PC-3 cells” value in series [5] is reported as “attenuated”. The “suppression of cell viability” value in the series on PC-3 cells is given as “suppressed the viability of PC-3 cells in a concentration-dependent manner”.
